Data as given in patent US20260167926A1, “SPINAL CORD INJURY TREATMENT NEUROSPHERE” (KEIO UNIVERSITY, priority 2019, published 2026).

Legend:
[1] = tested on: human iPS cell-derived neurospheres; assay: Neurite length after differentiation of neurospheres into neurons; format: cell-based; conditions: neurospheres cultured one day with inhibitor, then differentiated; 7th and 14th day; 201B7 and 414C2; compared to the untreated group
Procedure: Specifically, in an in vitro experimental system, human iPS cell-derived neurospheres were treated with a γ-secretase inhibitor and a p38 MAPK inhibitor to induce differentiation into neurons. Subsequently, the length of the neurite was measured and evaluated.
DAPT was used as the γ-secretase inhibitor. In addition, SB203580 (CAS Number: 152121-47-6) was used as the p38 MAPK inhibitor. First, human iPS cell-derived neurospheres were cultured for one day in the presence of the γ-secretase inhibitor alone, in the presence of the p38 MAPK inhibitor alone, or in the presence of the γ-secretase inhibitor and the p38 MAPK inhibitor.
Subsequently, various cells were seeded on a poly-L-ornithine/fibronectin-coated 48-well chamber slide (manufactured by Costar Corporation) at a cell density of 1×10^5 cells/mL, and the cells were cultured in a growth factor-free medium at in a 95% air environment at 37° C. and 5% CO2 for 14 days and were differentiated into neurons. Subsequently, on the 7th day and the 14th day after the initiation of differentiation induction, the cells were fixed with 4% paraformaldehyde in 0.1 M PBS, and the length of the neurite was measured.
FIG. 13A is a graph showing the results for neurons derived from 201B7 cells (n=5). In addition, FIG. 13B is a graph showing the results for neurons derived from 414C2 cells (n=5).

p38 MAPK [2] = assay: Immunostaining of phosphorylated p38 MAPK in neurons derived from 201B7 neurospheres; format: cell-based, human; conditions: 201B7 neurospheres cultured one day at final concentration of 10 μM, differentiated 14 days
Procedure: Phosphorylation of p38 MAPK in human iPS cell-derived neurospheres treated with a γ-secretase inhibitor was examined.
Specifically, neurospheres derived from 201B7 cells, which are cells of a human iPS cell strain, were cultured for one day in the presence of a secretase inhibitor at a final concentration of 10 μM. Subsequently, the neurospheres were cultured in a growth factor-free medium in a 95% air environment at 37° C. and 5% CO2 for 14 days and were differentiated into nerurons. Subsequently, on the 14th day after the initiation of differentiation induction, the cells were fixed with 4% paraformaldehyde in 0.1 M PBS and observed. DAPT was used as the γ-secretase inhibitor. Immunostaining of phosphorylated p38 MAPK and βIII-tubulin was performed. In addition, Hoechst 33342 (CAS Number: 23491-52-3) was used to stain the cell nuclei.
FIG. 26 is representative microscopic images showing the results of immunostaining. In FIG. 26, “Pp38” represents phosphorylated p38 MAPK, and “Merge” indicates the results of superimposing microscopic images. The scale bar is 20 μm.

p38 MAPK [3] = assay: Immunostaining of p38 MAPK, phosphorylated p38 MAPK and βIII-tubulin in differentiated cells; format: cell-based, human; conditions: 14 days after initiation of differentiation induction
Procedure: Immunostaining of p38 MAPK, phosphorylated p38 MAPK, and βIII-tubulin was performed using cells obtained 14 days after the initiation of differentiation induction. In addition, Hoechst 33342 (CAS Number: 23491-52-3) was used to stain the cell nuclei.
FIG. 14A and FIG. 14B are representative microscopic images showing the results of immunostaining of the cells in the GSI (+) group. In FIG. 14A and FIG. 14B, “Pp38” indicates phosphorylated p38 MAPK, and “Merge” indicates the results of superimposing microscopic images. The scale bar is 20μm.

Q: Which “neurite outgrowth (length of the neurite)” value [1] does the source give for `C[S+]([O-])c1ccc(-c2nc(-c3ccncc3)c(-c3ccc(F)cc3)[nH]2)cc1` (centres unmarked) [p38 MAPK inhibitor, SB203580] here?
A: Its value is “significantly decreased”.

Q: Which “neurite outgrowth (length of the neurite)” value [1] does the source give for `C[C@H](NC(=O)Cc1cc(F)cc(F)c1)C(=O)N[C@H](C(=O)OC(C)(C)C)c1ccccc1` [γ-secretase inhibitor, DAPT] here?
A: Its value is “significantly large”.

Q: What about the “phosphorylation of p38 MAPK in neurons derived from the neurospheres” value (p38 MAPK [2]) of the same compound?
A: Its value is “enhanced”.

Q: What about the “localization of p38-positive region relative to βIII-tubulin-positive neurons” value (p38 MAPK [3]) of the same compound?
A: The value was “co-localized”.

Q: And the “localization of phosphorylated p38-positive region” value (p38 MAPK [3])?
A: The value was “in the nucleus”.
